Here are results for 1 compound from US11396531B2, “Antimicrobial peptides comprising epsilon lysine residues” (priority 2016, dated 2022).

Values after ≈ are worked out from the molar mass of the structure shown. Like-named read-outs stand apart in the source and are kept apart here.

In series [1] the test system is primary human dermal fibroblasts (HDFs). The series is described as follows: MTS cytotoxicity assay. As to the method: MTS ((3-(4,5-dimethylthiazol-2-yl)-5-(3-carboxymethoxyphenyl)-2-(4-sulfophenyl)-2H-tetrazolium)) assay and high content analysis (HCA) were performed to elucidate the effect of various polymers on metabolic activity and morphological parameters of cultured human dermal fibroblasts (hDF), respectively as described previously. The antineoplastic agent, nocodazole (5 μg/ml), served as the […] control whereas cells treated with PBS served as positive control. The average values from three independent triplicate experiments are reported. Cells were cultured in 96-well plates and scanned (16 randomly selected fields/well) using an automated microscope IN Cell Analyzer 2200 (GE Healthcare). The multi-parametric cytotoxicity bio-application module of the IN Cell Investigator software (GE Healthcare) was used in quantitative estimations and morphotypic analysis of acquired images, which were automatically converted into color-coded heatmaps using Spotrfire® software.
Human dermal fibroblast cells were seeded in 96-well plates (2×10^3 cells/well) and incubated for 24 h at 37° C. and 5% CO2. Cells were then treated with various concentrations of polymers or peptides (62.5 μg/ml-1 mg/ml. At the end of the treatment period (after 24 h), 20 or 50 μl of MTS tetrazolium solution was added into 96-well or 12-well plates and further incubated for 2 h at 37° C. Subsequently, the absorbance was measured at 490 nm using a microplate reader (Infinite M200 Pro, Tecan, Switzerland) and the relative cell viability was calculated. Each treatment was performed in two triplicates and reported.
The cytotoxicity of peptides and polymers were determined using CellTier 96® Aqueous One solution cell proliferation assay kit according to the manufacturer's instruction (Promega Corporation, Madison, Wis.). This assay evaluates mitochondrial function by measuring ability of viable cells to reduce MTS ((3-(4,5-dimethylthiazol-2-yl)-5-(3-carboxymethoxyphenyl)-2-(4-sulfophenyl)-2H-tetrazolium)) into a quantifiable […] formazan product. HDFs were seeded in 96-well plates (2×10^3 cells/well) and incubated for 24 h at 37° C. and 5% CO2. Cells were then treated with a concentrated stock solution of polymers (final concentration 62.5-2000 μg/ml in the well) or peptides (final concentration 4-1000 μg/ml in the well). After 24 h, 20 μl of MTS tetrazolium solution was added into 96-well well plates and further incubated for 2 h at 37° C. Subsequently, the absorbance was measured at 490 nm using a microplate reader (Infinite M200 Pro, Tecan, Switzerland) and the relative cell viability was calculated relative to untreated control (10 mM PBS, pH 7.0). Each treatment was performed in two triplicates and reported.

In a further series the test system is red blood cells. The note with it: cited from earlier work.
Another series deals with E. cloacae complex. Briefly: microbe, parasite or virus in culture. Here is the method:
(§1) MIC of cationic polymers and polypeptide were tested in accordance with the Clinical and Laboratory Standards Institute (CLSI) guidelines against a panel of antibiotic-susceptible/-resistant bacteria, yeasts and fungal strains. Bacterial and yeast strains were cultured on tryptic soy agar (TSA) and Sabaroud dextrose agar (SDA) plates (Neogen Corporation, MI, USA) overnight respectively. Inocula in Mueller-Hinton broth (MHB) for bacteria and SD broth for C. albicans (Beckton Dickinson, MD, USA) were prepared at 0.5 McFarland. The suspensions were then diluted to a final concentration of 10^5 CFU/ml in a 96-well microtitre plate (SPL Life Sciences Co., Ltd, Korea). […] The antimicrobial activities were compared with topical antiseptic agents, BAK and CHX. A similar protocol was used to determine the MIC of εPL against antibiotic-resistant pathogens. MIC of the polymers and polypeptides against Fusarium strains was determined in full strength RPMI-1640 buffer. Fungal spores were recovered from a 5-day old culture on a potato dextrose agar and diluted to a concentration of 10^5 spores/ml in 0.9% saline solution. A further 50-fold dilution was done in RPMI-1640 buffer and 100 μl of the inoculum was added to 96 well plates containing an equal volume of test peptides at 2-fold serial dilutions. 200 μl of inoculum without any additives and buffer alone served as positive and negative controls, respectively. The plate was then incubated at 30° C. for 48 h. The absorbance value was measured at 600 nm as before and the lowest concentration of the peptide which inhibited 90% growth was reported. All MIC determinations were performed in duplicates.
(§2) MICs of polymers/antibiotics were determined using the microdilution method in 96 well microtitre plates (SPL Life Sciences Co., Ltd, Korea), following the guidelines of Clinical and Laboratory Standards Institute (CLSI) document M100-S18. Briefly, polymers (1-512 μg/ml) or antibiotics were dissolved in appropriate media (Mueller Hinton broth, MHB for bacteria; Sabaroud's Dextrose (SD) broth for yeasts and RPMI buffer for Fusarium strains) and 100 μl of this was then mixed with an equal volume of microbial inoculum (OD600=˜0.08) in the same media and shaken in a closed incubator.

Series [2] deals with Vancomycin-resistant Enterococcus (VRE). The following applies: VRE (n = 21 strains), Table 5. As to the method: as §1, §2
For another series, the system named is C. parapsilosis. The following applies: C. parpsilosis (n = 9), Table 5. As to the method: as §1, §2
A further series has as its system B. cereus ATCC 11778. The following applies: B. cereus ATCC 11778, Table 5. As to the method:
as §1, §2

The next series deals with C. tropicalis. The note with it: C. tropicalis (n = 9), Table 5. As to the method:
as §1, §2

A further series relates to C. albicans. Here is the method: as §1, §2
Series [3] concerns a number of micro-organisms. The following applies: cited from earlier work.
For another series, the system named is VRE 1002. The series is described as follows: SYTOX green (SG) uptake assay and bacterial viability. In kind it is cell-based, Enterococcus. As to the method:
To discern the pore-forming ability of modified peptide in comparison with melittin, the SYTOX green (SG) uptake assay was performed upon exposure of the peptides and their bactericidal properties were determined. […] Therefore the fluorescence intensity is taken to be proportional to the degree of cell membrane disruption caused by test peptides.

Series [4] is described as follows: Calcein dye leakage from mammalian model LUVs. The note with it: peptide:lipid ratio 0.0625. As to the method:
To obtain an insight into the mechanism of membrane discrimination, large unilamellar vesicles (LUVs) which mimic the cytoplasmic membrane of mammalian (PC/Cholesterol) and microbial (PE:PG) cells were used. […] More dramatic results were observed when the experiments were carried out on PC/Cholesterol LUVs.

As for `CC[C@H](C)[C@H](NC(=O)CN)C(=O)NCC(=O)N[C@@H](C)C(=O)N[C@H](C(=O)N[C@@H](CC(C)C)C(=O)N[C@@H](CCCCN)C(=O)N[C@H](C(=O)N[C@@H](CC(C)C)C(=O)N[C@H](C(=O)N[C@H](C(=O)NCC(=O)N[C@@H](CC(C)C)C(=O)N1CCC[C@H]1C(=O)N[C@@H](C)C(=O)N[C@@H](CC(C)C)C(=O)N[C@H](C(=O)N[C@@H](CO)C(=O)N[C@@H](Cc1c[nH]c2ccccc12)C(=O)N[C@H](C(=O)N[C@@H](CCCCN)C(=O)N[C@@H](CCCNC(=N)N)C(=O)N[C@@H](CCCCN)C(=O)N[C@@H](CCCNC(=N)N)C(=O)N[C@@H](CCC(N)=O)C(=O)N[C@@H](CCC(N)=O)C(N)=O)[C@@H](C)CC)[C@@H](C)CC)[C@@H](C)O)[C@@H](C)O)C(C)C)C(C)C` [Melittin], the “Cytotoxicity (in μg/ml) for HDFs” value in series [1] (Concentration at which complete cytotoxicity was observed in MTS and HCA) is 16 µg/mL. Also, the “Cytotoxicity for primary human dermal fibroblasts” value in series [1] (Table 5) amounted to 16 µg/mL. Moreover, the Haemolytic activity was 100% at 4 μM with red blood cells (at 4 μM, reference 4); 50% at 5 μM in the series with red blood cells (at 5 μM, reference 8); >80% at 10 μM in the series on red blood cells (at 10 μM, reference 6). For the same compound, the MIC in the series on E. cloacae complex (E. cloacae complex 6780, Table 5) was 8 mg/L (≈ 2.81 µM); in the series on E. cloacae complex (E. cloacae complex 44095, Table 5), 8 mg/L (≈ 2.81 µM); in series [2] (range), 0.5 to 8 mg/L; in the series with C. parapsilosis, 16 to 64 mg/L; in the series with B. cereus ATCC 11778, 8 mg/L (≈ 2.81 µM); against C. tropicalis it was 8 to 64 mg/L. Also, the MIC against C. albicans (C. albicans (n = 5), Table 5) was 2 to 4 mg/L. Further, the MIC90 result in [2] (90% of strains susceptible) is “(MIC90 = 8)^2 μg/ml”. Moreover, the “MIC against C. albicans (n = 5)” value with C. albicans (Table 4, range over 5 strains) lay in the range of 2 to 4 mg/L. The “MIC (range against a number of micro-organisms)” value in [3] (at 1 - 4 × 10^5 CFU/mL, reference 4) is reported as 0.2 - 3 μM at 1 -; in [3] (at 1 × 10^6 CFU/mL, reference 6) it was 0.5 - 8 μM at; in series [3] (at 7.5 × 10^5 CFU/mL, reference 8) it was 3.9 - 31.3 μM at. Besides, the SG uptake amounted to 79.2% with VRE 1002 (VRE 1002, at 1×MIC) and 89.7% in the series with VRE 1002 (VRE 1002, at 2×MIC). Besides, in [4], the “dye leakage from PC/Cholesterol LUVs” value is reported as ~70%.
